In US20230416238A1, “N-[(1,3-BENZOXAZOL-2-YL)-HETEROCYCLE]AMIDE DERIVATIVES FOR THE TREATMENT AND PROPHYLAXIS OF HEPATITIS B VIRUS INFECTION” (Hoffmann-La Roche Inc., priority 2020, published 2023):

Key:
Type in all cases: cell-based
[1] = Cytotoxicity in PHH natural infection assay (Cell Counting Kit-8); settings: HBV-infected primary human hepatocytes, CCK8
Description: (§1) Detailed procedures regarding primary human hepatocyte (PHH) HBV natural infection assay are described as below. One tube of frozen PHH (10 million cells) is thawed in 37° C. water bath and then transferred to 20 mL of PHH thawing medium (Sigma, InVitroGRO HT Medium, Cat. S03319) with gently mixing. The cells were then centrifuged at […] for 5 min, the supernatant was discarded and the tube was refilled with 25 mL of PHH plating medium (Sigma, InVitroGRO CP Medium, Cat. S03317). The tube was shaken very gently to re-suspend all cells, and then 50 μL of cells were transferred to each well 384-well collagen I coated plate with appropriate liquid handling equipment, e.g. Integra VIAFLO384 or Agilent Bravo. The cells were then cultured for 24 hours in a cell incubator. For HBV infection, after PHH attachment on the culture plate, the plating medium was removed and replenished with PHH culture medium containing HBV virus. The PHH culture medium was prepared with Dulbecco's Modified Eagle Medium (DMEM)/F12 (1:1 in volume ratio) containing 10% fetal bovine serum (Gibco, Cat. 10099141), 5 ng/mL human epidermal growth factor (Gibco, Cat. PHG0311L), 20 ng/mL dexamethasone (Sigma, Cat. D4902-100 mg), 250 ng/mL human recombinant insulin (Gibco, Cat. 41400045) and 100 U/mL penicillin. HBV virus at 200 genome equivalent (GE) per cell with 4% PEG8000 (Sigma, Cat. P1458) containing culture medium were added to the PHH culture medium for infection. The cells were then cultured for 24 hours in cell incubator. Then the cell culture supernatant was removed. The HBV-infected PHH were cultured with sandwich culture method with MEI culture medium containing 1% DMSO and 0.25 mg/mL matrix gel for 72 hours. The supernatant was then refreshed with PHH culture medium containing different concentrations of testing compounds for two times with 72-hour interval. At the end of treatment, the supernatant was collected for viral markers measurements, including HBsAg, HBeAg, HBV DNA and cytotoxicity. HBsAg and HBeAg were detected using alphalisa method using their specific antibodies. For HBV DNA detection, HBV DNA Quantitative Fluorescence Diagnostic Kit (Sansure Biotech Inc.) was used following the manufacture's protocol. Cytotoxicity was determined using Cell Counting Kit-8 (CCK8, Dojindo Molecular Technologies, Inc.).

HBsAg = experiment: PHH HBV natural infection assay, HBsAg (alphalisa); settings: Hepatitis B virus, Hepatocyte, read-out: HBsAg IC50
Description: as §1
(§2) The compounds of the present invention were tested for their capacity to inhibit HBsAg and HBeAg as described herein.

HBeAg = experiment: PHH HBV natural infection assay, HBeAg (alphalisa); settings: Hepatitis B virus, Hepatocyte, read-out: HBeAg IC50
Description: as §1, §2

SMILES	CC50 at 144 h [1] [µM]	IC50 (HBsAg) [µM]	IC50 (HBeAg) [nM]
CC(C)CC(=O)NC1CCC2(CC1)CCN(c1nc3cc(Cl)ccc3o1)CC2 [Example 80, N-[3-(5-chloro-1,3-benzoxazol-2-yl)-3-azaspiro[5.5]undecan-9-yl]-3-methyl-butanamide]	> 100	2.7	2790
CC1(C(=O)NC2CCC3(CC2)CCN(c2nc4cc(Cl)ccc4o2)CC3)CCS(=O)(=O)CC1 [Example 99, N-[3-(5-chloro-1,3-benzoxazol-2-yl)-3-azaspiro[5.5]undecan-9-yl]-4-methyl-1,1-dioxo-thiane-4-carboxamide]	94.1	2.63	2020
O=C(NC1CC2(C1)CN(c1nc3cc(Cl)ccc3o1)C2)c1ccc(S(=O)(=O)C2CC2)o1 [Example 44, N-[2-(5-chloro-1,3-benzoxazol-2-yl)-2-azaspiro[3.3]heptan-6-yl]-5-cyclopropylsulfonyl-furan-2-carboxamide]	> 100	2.27	1280
CC(C)(C)C(=O)NC1CC2(C1)CN(c1nc3cc(Cl)ccc3o1)C2 [Example 27, N-[2-(5-chloro-1,3-benzoxazol-2-yl)-2-azaspiro[3.3]heptan-6-yl]-2,2-dimethyl-propanamide]	> 100	5.67	3690
O=C(NC1CC2(C1)CN(c1nc3cc(Cl)ccc3o1)C2)c1ccc(S(=O)(=O)NC2CC2)o1 [Example 59, N-[2-(5-chloro-1,3-benzoxazol-2-yl)-2-azaspiro[3.3]heptan-6-yl]-5-(cyclopropylsulfamoyl)furan-2-carboxamide]	> 10	2.84	1460
NS(=O)(=O)c1ccc(C(=O)NC2CCC3(CC2)CCN(c2nc4cc(Cl)ccc4o2)CC3)o1 [Example 108, N-[3-(5-chloro-1,3-benzoxazol-2-yl)-3-azaspiro[5.5]undecan-9-yl]-5-sulfamoyl-furan-2-carboxamide]	> 10	6.69	4180
O=C(NC1CCC2(C1)CN(c1nc3cc(Cl)ccc3o1)C2)c1ccc(C(F)(F)F)o1 (stereo not drawn) [Example 69, N-[2-(5-chloro-1,3-benzoxazol-2-yl)-2-azaspiro[3.4]octan-6-yl]-5-(trifluoromethyl)furan-2-carboxamide]	83.2	4.41	4010
O=C(NC1CCC2(CC1)CCN(c1nc3cc(Cl)ccc3o1)CC2)C1COC1 [Example 85, N-[3-(5-chloro-1,3-benzoxazol-2-yl)-3-azaspiro[5.5]undecan-9-yl]oxetane-3-carboxamide]	70.9	8.75	6130
NS(=O)(=O)c1ccc(C(=O)NCC2CCN(c3nc4cc(Cl)ccc4o3)CC2)o1 [Example 8, N-[[1-(5-chloro-1,3-benzoxazol-2-yl)-4-piperidyl]methyl]-5-sulfamoyl-furan-2-carboxamide]	> 10	3.14	2850
O=C(NCC1CCN(c2nc3cc(Cl)ccc3o2)CC1)c1ccnc(S(=O)(=O)C2CC2)c1 [Example 3, N-[[1-(5-chloro-1,3-benzoxazol-2-yl)-4-piperidyl]methyl]-2-cyclopropylsulfonyl-pyridine-4-carboxamide]	> 10	7.84	6380
O=C(NCC1CCN(c2nc3cc(Cl)ccc3o2)CC1)c1ccc(C(F)(F)F)nc1 [Example 2, N-[[1-(5-chloro-1,3-benzoxazol-2-yl)-4-piperidyl]methyl]-6-(trifluoromethyl)pyridine-3-carboxamide]	> 10	8.1	6310
Cc1ccc(S(=O)(=O)N2CCC(CC(=O)NCC3CCN(c4nc5cc(Cl)ccc5o4)CC3)C2)cc1 (stereo not drawn) [Example 18, N-[[1-(5-chloro-1,3-benzoxazol-2-yl)-4-piperidyl]methyl]-2-[1-(p-tolylsulfonyl)pyrrolidin-3-yl]acetamide]	> 10	3.9	3780
O=C(NC1CC2(CCN(c3nc4cc(Cl)ccc4o3)CC2)C1)C1CCS(=O)(=O)C1 (stereo not drawn) [Example 76, N-[7-(5-chloro-1,3-benzoxazol-2-yl)-7-azaspiro[3.5]nonan-2-yl]-1,1-dioxo-thiolane-3-carboxamide]	> 100	2.26	2270
O=C(NC1CCC2(CC1)CCN(c1nc3cc(Cl)ccc3o1)CC2)C1CCS(=O)(=O)CC1 [Example 96, N-[3-(5-chloro-1,3-benzoxazol-2-yl)-3-azaspiro[5.5]undecan-9-yl]-1,1-dioxo-thiane-4-carboxamide]	93.6	0.957	727
N=S(=O)(CC1CC1)c1ccc(C(=O)NC2CC3(C2)CN(c2nc4cc(Cl)ccc4o2)C3)o1 (stereo not drawn) [Example 57, N-[2-(5-chloro-1,3-benzoxazol-2-yl)-2-azaspiro[3.3]heptan-6-yl]-5-(cyclopropylmethylsulfonimidoyl)furan-2-carboxamide]	> 100	0.996	953
O=C(NC1CCC2(CC1)CCN(c1nc3ccc(Cl)cc3o1)CC2)C1CCS(=O)(=O)CC1 [Example 97, N-[3-(6-chloro-1,3-benzoxazol-2-yl)-3-azaspiro[5.5]undecan-9-yl]-1,1-dioxo-thiane-4-carboxamide]	> 100	3.52	2480
CS(=O)(=O)c1cc(C(=O)NC2CC3(C2)CN(c2nc4cc(Cl)ccc4o2)C3)ccn1 [Example 52, N-[2-(5-chloro-1,3-benzoxazol-2-yl)-2-azaspiro[3.3]heptan-6-yl]-2-methylsulfonyl-pyridine-4-carboxamide]	> 100	1.5	1260
O=C(NC1CCC2(CC1)CCN(c1nc3ccc(Cl)cc3o1)CC2)C1CCS(=O)(=O)C1 (stereo not drawn) [Example 94, N-[3-(6-chloro-1,3-benzoxazol-2-yl)-3-azaspiro[5.5]undecan-9-yl]-1,1-dioxo-thiolane-3-carboxamide]	90.6	1.73	1400
O=C(NC1CCC2(CC1)CCN(c1nc3cc(Cl)ccc3o1)CC2)c1ccnc(C(F)(F)F)c1 [Example 105, N-[3-(5-chloro-1,3-benzoxazol-2-yl)-3-azaspiro[5.5]undecan-9-yl]-2-(trifluoromethyl)pyridine-4-carboxamide]	59	1.12	1030
Cc1ccc(S(=O)(=O)N2CCC(C(=O)NCC3CCN(c4nc5cc(Cl)ccc5o4)CC3)CC2)cc1 [Example 16, N-[[1-(5-chloro-1,3-benzoxazol-2-yl)-4-piperidyl]methyl]-1-(p-tolylsulfonyl)piperidine-4-carboxamide]	> 10	3.74	3670
CC(C)C[S+]([O-])c1ccc(C(=O)NC2CC3(C2)CN(c2nc4cc(Cl)ccc4o2)C3)o1 (stereo not drawn) [Example 62, N-[2-(5-chloro-1,3-benzoxazol-2-yl)-2-azaspiro[3.3]heptan-6-yl]-5-isobutylsulfinyl-furan-2-carboxamide]	77.4	0.449	393
CC1(C(=O)NC2CC3(C2)CN(c2nc4cc(Cl)ccc4o2)C3)CCS(=O)(=O)C1 (stereo not drawn) [Example 33, N-[2-(5-chloro-1,3-benzoxazol-2-yl)-2-azaspiro[3.3]heptan-6-yl]-3-methyl-1,1-dioxo-thiolane-3-carboxamide]	> 100	4.51	4400
O=C(NC1CC2(C1)CN(c1nc3cc(Cl)ccc3o1)C2)c1ccc(C(F)(F)F)o1 [Example 42, N-[2-(5-chloro-1,3-benzoxazol-2-yl)-2-azaspiro[3.3]heptan-6-yl]-5-(trifluoromethyl)furan-2-carboxamide]	> 100	5.66	4670
CS(=O)(=O)N1CCC(C(=O)NCC2CCN(c3nc4cc(Cl)ccc4o3)CC2)CC1 [Example 15, N-[[1-(5-chloro-1,3-benzoxazol-2-yl)-4-piperidyl]methyl]-1-methylsulfonyl-piperidine-4-carboxamide]	> 10	3.97	3640
O=C(NC1CC2(C1)CN(c1nc3cc(Cl)ccc3o1)C2)C1CC1(F)F (stereo not drawn) [Example 30, N-[2-(5-chloro-1,3-benzoxazol-2-yl)-2-azaspiro[3.3]heptan-6-yl]-2,2-difluoro-cyclopropanecarboxamide]	> 100	3.5	2700
